This passage reports Papp A→B results from US20200131669A1, “CYCLIC PEPTIDE COMPOUND HAVING HIGH MEMBRANE PERMEABILITY, AND LIBRARY CONTAINING SAME” (Chugai Seiyaku Kabushiki Kaisha, priority 2017, published 2020).

Starred links: 1 amine or outer side, 2 acyl side, 3 side chain; linkers in the order of their positions; H or OH if unused. Positions of bridges follow the written chain, without caps; N, C: chain ends. Non-standard residues stand in square brackets, D forms with d. Residues, ends and D or L forms follow the SMILES beside them. *: point of attachment. hNle(7,7-F2) = N[C@@H](CCCCC(F)F)C(=O)O; Hyp = O=C(O)[C@@H]1C[C@@H](O)CN1; NMeF = CN[C@@H](Cc1ccccc1)C(=O)O; hPhe = N[C@@H](CCc1ccccc1)C(=O)O; NMeβAla = CN(CCC(=O)[*:2])[*:1]; NMeD = CN[C@@H](CC(=O)O)C(=O)O; NMeL = CN[C@@H](CC(C)C)C(=O)O; NMeV = CN[C@H](C(=O)O)C(C)C; NMeAbu = CC[C@H](NC)C(=O)O; NPentylGly = CCCCCNCC(=O)O; NMeA = CN[C@@H](C)C(=O)O; Piperidide = C1CCN(*)CC1; Sar = CNCC(=O)O; tBu = CC(C)(C)*

The first data set in a line: Caco-2 membrane permeability, improved method as used in the following Examples (96-well, 20 to 24 h preincubation). It is filed as in vitro ADME. Conditions: human, Caco-2, Caco-2. An outline of the steps: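 Caco-2 monolayers were grown three weeks and preincubated 20–24 h at 37 °C with compound in DMEM+FaSSIF (1% DMSO) apically. The assay then used compound in FaSSIF/HBSS (1% DMSO, pH 6.0) apically and HBSS with 4% BSA (pH 7.4) basally. Basal samples were taken at 180 min for LC/MS, and Papp (cm/sec) was calculated.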
As for `CCO[C@@H]1C[C@H]2C(=O)N(C)[C@@H](CC(C)C)C(=O)N[C@@H]([C@@H](C)O)C(=O)N(C)[C@@H](Cc3ccccc3)C(=O)N[C@@H](Cc3ccccc3)C(=O)N(C)[C@@H](CC(C)C)C(=O)N[C@H](C(=O)N3CCCCC3)CC(=O)N[C@H](CC(C)C)C(=O)N3CCC[C@H]3C(=O)N[C@@H](COC(C)(C)C)C(=O)N(C)[C@@H](CC(C)C)C(=O)N2C1` [pd372] ([dL]PS(tBu)[NMeL][Hyp](Et)[NMeL]T[NMeF]F[NMeL]D-Piperidide; lactam N-11), the apparent permeability from apical to basolateral (Papp A→B) – broadly, the apparent permeability from the apical to the basolateral side of a cell layer – at 180 min was 1.4 ×10⁻⁶ cm/s.

`CCCCCN1CC(=O)N(C)[C@@H](CC(C)C)C(=O)N[C@H](C(=O)N2CCCCC2)CC(=O)N(C)[C@@H](C(C)C)C(=O)N[C@@H](CC(C)C)C(=O)N(C)[C@@H](CC)C(=O)N(C)[C@@H](Cc2ccccc2)C(=O)N[C@@H](C)C(=O)N(C)[C@@H](Cc2ccccc2)C(=O)N(C)[C@@H](CC)C(=O)N[C@@H]([C@@H](C)O)C1=O` [pd403] ([NMeV]L[NMeAbu][NMeF]A[NMeF][NMeAbu]T[NPentylGly][NMeL]D-Piperidide; lactam N-11) showed a Papp A→B at 180 min of 9 ×10⁻⁶ cm/s.

In turn, `CC(C)C[C@H]1NC(=O)C[C@@H](C(=O)N2CCCCC2)NC(=O)[C@H](C)N(C)C(=O)[C@H](CC(C)C)N(C)C(=O)[C@H](COC(C)(C)C)NC(=O)[C@H](CC(C)C)N(C)C(=O)CN(C)C(=O)[C@H]([C@@H](C)O)NC(=O)[C@H](CC(C)C)N(C)C(=O)[C@H](CCc2ccccc2)NC(=O)[C@H](Cc2ccccc2)N(C)C1=O` [pd314] ([dL][NMeF][hPhe][NMeL]T[Sar][NMeL]S(tBu)[NMeL][NMeA]D-Piperidide; lactam N-11) gave a Papp A→B at 180 min of 1.4 ×10⁻⁶ cm/s.

`CC(C)C[C@H]1C(=O)N[C@@H](COC(C)(C)C)C(=O)N(C)[C@@H](Cc2ccccc2)C(=O)N(C)[C@@H](C(C)C)C(=O)N[C@H](C(=O)N2CCCCC2)CC(=O)N[C@H](C(C)C)C(=O)N(C)[C@@H](Cc2ccccc2)C(=O)N[C@@H](CCCCC(F)F)C(=O)N(C)[C@@H](CC(C)C)C(=O)N[C@@H]([C@@H](C)O)C(=O)N(C)CC(=O)N1C` [pd331] ([dV][NMeF][hNle(7,7-F2)][NMeL]T[Sar][NMeL]S(tBu)[NMeF][NMeV]D-Piperidide; lactam N-11): the Papp A→B at 180 min amounted to 2.1 ×10⁻⁶ cm/s.

The data set is the same for the next values; noted with them: human, Caco-2, Caco-2 (cm/sec).
Consider `CC(C)C[C@H]1C(=O)N(C)[C@@H](Cc2ccccc2)C(=O)N(C)[C@@H](Cc2ccccc2)C(=O)N[C@@H]([C@@H](C)O)C(=O)N(C)[C@@H](C)C(=O)N(C)[C@@H](Cc2ccccc2)C(=O)N[C@H](C(=O)N2CCCCC2)CC(=O)N(C)[C@@H](C)C(=O)N(C)[C@@H](CC(C)C)C(=O)N(C)[C@@H](Cc2ccccc2)C(=O)N[C@@H](C)C(=O)N1C` [pd232] ([NMeA][NMeL][NMeF]A[NMeL][NMeF][NMeF]T[NMeA][NMeF]D-Piperidide; lactam N-11), for which the Papp A→B at 180 min is 0.19 ×10⁻⁶ cm/s.

In turn, `CC(C)C[C@@H]1NC(=O)[C@H](Cc2ccccc2)N(C)C(=O)[C@@H](C)NC(=O)C[C@@H](C(=O)N2CCCCC2)N(C)C(=O)[C@H](Cc2ccccc2)N(C)C(=O)[C@H](Cc2ccccc2)N(C)C(=O)[C@H](COC(C)(C)C)NC(=O)[C@H](CC(C)C)N(C)C(=O)CN(C)C(=O)[C@H]([C@@H](C)O)NC(=O)[C@H](CC(C)C)N(C)C1=O` [pd224] ([dA][NMeF]L[NMeL]T[Sar][NMeL]S(tBu)[NMeF][NMeF][NMeD]-Piperidide; lactam N-11) had an apparent permeability from apical to basolateral (Papp A→B) at 180 min of 1 ×10⁻⁶ cm/s.

For `CC[C@H](C)[C@@H]1NC(=O)[C@H](Cc2ccccc2)N(C)C(=O)[C@H](C)N(C)C(=O)[C@H](CC(C)C)N(C)C(=O)[C@H](Cc2ccccc2)N(C)C(=O)CCN(C)C(=O)C[C@@H](C(=O)N(C)[C@@H](Cc2ccccc2)C(=O)N(C)[C@@H](Cc2ccccc2)C(=O)N[C@@H](C)C(=O)N2CCCCC2)NC(=O)[C@H]([C@@H](C)O)NC(=O)[C@H](CC(C)C)N(C)C(=O)[C@H](CC(C)C)N(C)C1=O` [pd239] ([NMeβAla][NMeF][NMeL][NMeA][NMeF]I[NMeL][NMeL]TD[NMeF][NMeF]A-Piperidide; lactam N-10), the apical-to-basolateral permeability (Papp A→B) at 180 min stood at 0.065 ×10⁻⁶ cm/s.
